From patent US9556437B2, “FAT1 gene in cancer and inflammation” (DEPARTMENT OF BIOTECHNOLOGY (DBT), priority 2012, dated 2017) come the findings set out here.

Common to all, as to assay type: cell-based, human
The subject of data set [1] is A172 cells. Briefly: Migration assay, modified Boyden chamber. Conditions: A172siFAT1 vs siControl, 24 hrs assay, 72 hrs post-transfection, P<0.001. On the procedure:
(§1) Migration and Invasion Assays: The modified Boyden chamber/matrigel assay was performed according to the manufacturer's directions (BD Biosciences, Bedford, Mass.). For in vitro migration assays, chambers with control inserts that lacked the matrigel coating were used. Transfections were carried out in U87MG and A172 cells and 48 hrs later 3×10^4 U87MG cells/well and 7×10^4 A172 cells/well were resuspended in serum-free DMEM and seeded in triplicate in matrigel-coated (1 mg/ml; BD Biosciences) and uncoated control inserts (8-μm pore-size, BD Bioscience, Bedford, Mass.). The remaining protocol was done as previously described.

Data set [2] deals with U87MG cells. Briefly: Migration assay, modified Boyden chamber. The following applies: U87MGsiFAT1 vs siControl, 24 hrs assay, 72 hrs post-transfection, P<0.01. The procedure: as §1
The subject of data set [3] is PDCD4. The experiment in a line: PDCD4 mRNA expression by q-PCR. Conditions: 72 hrs post siRNA transfection. The procedure: (§2) Cell Culture and siRNA Transfection: The human glioma cell lines U87MG, U373, A172, T98G, GOS3 and SW1088 were obtained from ATCC; Rockville, Md., cultured in DMEM (Sigma-Aldrich, Switzerland) supplemented with 10% (v/v) FCS (Sigma-Aldrich), 3.7 g/l sodium bicarbonate (Sigma-Aldrich), Ciprofloxacin 10 μg/ml and 5% CO2 at 37° C. For transfection, 2×10^5 cells were seeded per 25 cm^2 flask. After 24 hrs, cells were transfected with FAT1 siRNA and universal medium GC control siRNA (Invitrogen) according to the manufacturer's protocol with a final concentration of 20 nM of siRNA using LIPOFECTAMINE 2000 (Invitrogen) and Opti-Mem media (Invitrogen). After 4 hrs of siRNA transfection, the media was supplemented with DMEM containing 2×FCS. The ability of each siRNA to mediate knockdown of FAT1 mRNA was confirmed using qRT-PCR. Photomicrographs of the cells were taken using an inverted phase contrast microscope (Nikon TMS, Phase contrast microscope, Japan). For simultaneous knockdown of FAT1 and PDCD4, siRNA from Dharmacon were used. Transfection was performed as earlier with 50 nM of FAT1 siRNA along with 50 nM of PDCD4 siRNA or 50 nM of control siRNA.
cDNA Synthesis and Quantitative PCR: Total RNA was isolated from cells at appropriate time point (vide supra) using TRIzol reagent (Invitrogen), quantified using a Nanodrop ND-1000 spectrophotometer. DNase (Ambion) treatment was given and 1 μg of total RNA was used for cDNA synthesis, done by Fermentas RevertAid™ First Strand cDNA Synthesis Kit using random decamers. PCR reactions were carried in 10 μL reaction volumes (2.5 μL of 1:5 diluted cDNA, […] of primer mix (0.5 pmol/μL as final concentration of each primer), 1 μL, of 10× Taq Buffer A, 0.5 U Taq polymerase (Bangalore Genei, Bangalore, India), 1 μL Syto9 (Invitrogen), 0.25 μL of 10 mM dNTPs (MBI Fermentas, Thermo Fisher Scientific, Rockford, Ill. USA), and 4.6 μL of nuclease-free water (Ambion) on a RotorGene6000 Real Time PCR in triplicates. The detail of the primers used is given in Table 1. ΔCt values were defined as target gene Ct minus 18s RNA Ct and averaged for each triplicate sample. Statistical significance was determined by Student's t-test analysis (P<0.05).

The test system of data set [4] is phospho-Akt. The experiment in a line: Western blot phospho-Akt. The following applies: U87MG cells after FAT1 knockdown. The procedure: FIG. 9: FAT1 knockdown results in increased p-akt level in U87MG cell line; Akt is known to negatively regulate PDCD4 expression; therefore, the effect of FAT1 knockdown on the phosphorylation status of Akt in U87MG cells was checked by Western blot analysis using β-actin as a loading control.
(§3) Western Blotting Analyses: Cells were lysed in triple detergent buffer containing protease and phosphatase inhibitors (Sigma Aldrich), lysates were quantified by BCA kit (Pierce, Thermo Fisher Scientific, Rockford, Ill. USA) and electrophoresed in 10% SDS-PAGE and electroblotted on nitrocellulose membrane (Millipore, Billerica, Mass., USA). Membrane was blocked with 5% bovine serum albumin (BSA) in 1×TBS at 4° C. for overnight. Primary and secondary antibody was diluted in 5% BSA and 0.1% tween-20 in 1×TBS. Blot was incubated in primary antibody overnight at 4° C. followed by secondary antibody incubation for 2 hrs at room temperature. Blot was developed by BCIP-NBT (Promega, Madison, Wis., USA) and captured using Alpha Imager EP software.
(In western blotting, separated proteins are transferred to a membrane and probed.)

The test system of data set [5] is COX-2. The experiment in a line: Western blot COX-2 protein. Conditions: U87MGsiFAT1 vs siControl. The procedure: as §3
The subject of data set [6] is phospho-c-jun. Briefly: Western blot phospho-c-jun (Ser63). Conditions: U87MGsiFAT1 vs siControl. On the procedure: as §3
The subject of data set [7] is PDCD4. The experiment in a line: Western blot PDCD4 protein. The following applies: U87MG, A172, U373MG and T98G, vs siControl. The procedure: as §3
Data set [8] relates to PLAU (Urokinase). The experiment in a line: PLAU mRNA expression by q-PCR. Conditions: U87MGsiFAT1 cells. On the procedure:
as §2
cDNA Synthesis and Quantitative PCR: Total RNA was isolated from cells at appropriate time point (vide supra) using TRIzol reagent (Invitrogen), quantified using a Nanodrop ND-1000 spectrophotometer. […]

Data set [9] relates to U87MG cells. Briefly: Cell cycle analysis by flow cytometry (PI staining). Conditions: FACS, 72 hrs after transfection, vs siControl. The procedure:
(§4) On day 1, siRNA transfection was carried out. 1 ml of OPTIMEM, 50 picomoles of siRNA (siControl and siFAT1) and 3 μl of LIPOFECTAMINE 2000 was used per well. Cells were then analyzed by flow-cytometery after 72 hrs of transfection to assess the cell cycle distribution of individual cells. Cells were fixed in 70% ethanol overnight at −20′C followed by propidium iodide (PI) staining. Florescence was measured on FACS (florescence activated cell sorter, BD Biosciences, Bedford, Mass.). […] On day 1, transfection was carried out. 50 μl of OPTIMEM, 2 picomoles of siRNA (control and FAT1 siRNA) and 0.5 μl of LIPOFECTAMINE 2000 was used per well. After 4 hrs incubation at 37° C., 50 μl 2× media was added per well. After every time point (24, 48, 72 and 96 hrs of transfection), media was removed from wells and 100 μl of MTT (0.2 mg/ml) was added per well and incubated for 2-4 hrs. The formazan crystals formed were dissolved by addition of 100 μl of DMSO and absorbance was measured at 570 nm.
In general terms: In flow cytometry, cells or beads pass a laser one at a time.

Data set [10] deals with U87MG cells. Briefly: MTT assay. Conditions: 24, 48, 72 and 96 hrs of transfection, vs siControl. On the procedure: as §4
On the technique in general: Tetrazolium dyes change colour on reduction, which living cells bring about.

Entries after “also recorded” stand apart in the source; their conditions may differ.

For “siFAT1: FAT1 specific siRNA (Invitrogen), FAT Stealth RNAi siRNA-I (HSS103567), used for further experiments (sense CCCAACACACCUGUGGUCAUGGUAA; antisense UUACCAUGACCACAGGUGUGUUGGG; Stealth modification, chemistry not fully specified; listed as Homo sapiens)”, the reduction in migration in data set [1] is reported as more than 3 fold; in data set [2], more than 2 fold. The “increase in PDCD4 mRNA expression” value was 2.8 fold in data set [3] (A172, vs siControl); 3.5 fold in [3] (T98G, vs siControl); 2.4 fold in data set [3] (U87MG, vs siControl); 3.2 fold in data set [3] (U373MG, vs siControl); “more than two fold” in data set [3] (all the GBM cell lines (U87MG, A172, U373 and T98)). Also, the phospho-Akt level result in data set [4] is on record as “increase”. In data set [5], the COX-2 protein expression result is “Significant reduction; also recorded: decreased”. The “c-jun phosphorylation (p-c-jun level)” value in data set [6] is listed as “significantly decreased; also recorded: significant reduction”. Besides, the PDCD4 protein level result in [7] is listed as “increased”. For the same substance, the “decrease in PLAU mRNA expression” value in data set [8] is “more than 10 fold”. Besides, the “distribution of cell population in different phases of cell cycle” value in data set [9] is on record as “no variation; also recorded: No difference”. The “cell viability / proliferation by MTT” value in data set [10] was “no variation; also recorded: No significant difference”.
